# Active and inactive are the calls of the source. How the calls were made is not given here.
# Columns and labels:
# [1] = target: T1, Ferrochelatase, mitochondrial (Homo sapiens) (UniProt P22830); details: at 10 µM
# T1 sequence (whole entry): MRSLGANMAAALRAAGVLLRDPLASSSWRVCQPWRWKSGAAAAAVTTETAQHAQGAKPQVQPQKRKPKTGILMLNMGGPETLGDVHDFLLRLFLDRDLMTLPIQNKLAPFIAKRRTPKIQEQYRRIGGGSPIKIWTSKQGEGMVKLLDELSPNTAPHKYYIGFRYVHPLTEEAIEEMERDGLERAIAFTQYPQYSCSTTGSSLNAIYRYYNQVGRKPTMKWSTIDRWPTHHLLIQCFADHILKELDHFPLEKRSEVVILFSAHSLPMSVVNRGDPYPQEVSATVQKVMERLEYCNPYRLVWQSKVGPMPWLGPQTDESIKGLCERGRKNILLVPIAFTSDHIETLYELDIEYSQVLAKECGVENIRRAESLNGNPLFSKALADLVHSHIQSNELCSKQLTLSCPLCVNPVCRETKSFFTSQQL
# Description: Compound was evaluated for the inhibition of human FECH at 10uM
# [2] = target: T2, Porphobilinogen deaminase (Homo sapiens) (UniProt P08397); details: at 100 µM
# T2 sequence (whole entry): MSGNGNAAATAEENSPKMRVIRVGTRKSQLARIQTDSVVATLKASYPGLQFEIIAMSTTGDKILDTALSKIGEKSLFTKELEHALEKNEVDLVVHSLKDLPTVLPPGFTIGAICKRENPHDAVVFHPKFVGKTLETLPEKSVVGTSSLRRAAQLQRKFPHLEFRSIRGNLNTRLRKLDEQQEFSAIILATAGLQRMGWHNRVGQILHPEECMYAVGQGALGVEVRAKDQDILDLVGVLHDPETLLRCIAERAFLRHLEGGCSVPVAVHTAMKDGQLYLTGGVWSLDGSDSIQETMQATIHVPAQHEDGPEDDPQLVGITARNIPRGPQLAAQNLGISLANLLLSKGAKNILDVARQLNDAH
# Description: Compound was evaluated for the inhibition of human HMBS at 100uM
SMILES,inhibition [1],inhibition [2]
c1ccc(Oc2ccc(-c3cncc(-c4ccc5[nH]ccc5c4)n3)cc2)cc1,inactive,inactive
Cc1cc(C)n(-c2ccc(NC(=O)C3CCN(Cc4cnc(C)s4)CC3)cc2)n1,inactive,inactive
CC(=O)N1CCc2cc3nc(C)cc(C)c3cc21,inactive,inactive
COc1ccc(-c2nn(C(C)C)c3ncnc(N)c23)cc1OC,inactive,inactive
OC[C@H]1O[C@@H](n2c3ccc(Cl)cc3c3c(-c4cc5ccccc5o4)ncnc32)C(O)[C@H]1O (stereo partly drawn),inactive,inactive
COc1cccc(-n2nnnc2S(C)(=O)=O)c1,inactive,inactive
O=C1N(Cc2cc3ccccc3s2)CC2CN(Cc3ccccc3)CCN12 (stereo not drawn),inactive,inactive
O=[N+]([O-])c1cn2c(n1)OC[C@@H](OCc1ccc(OC(F)(F)F)cc1)C2,inactive,inactive
COc1cc2ncnc(NC3CCN(Cc4ccccc4)CC3)c2cc1OC,inactive,inactive
CCCn1c(CNc2ccccc2O)nc2ccccc21,inactive,inactive
Cc1cc(OCC(=O)NCc2ccccc2)c2cc(Br)ccc2n1,inactive,inactive
FC(F)(F)c1cccc(-c2nc3c(NCc4ccncc4)nccc3[nH]2)c1,inactive,inactive
CC(C)(C)c1cc(C(=O)N2CCN(c3nccnc3C#N)CC2)n(Cc2ccccc2)n1,inactive,inactive
CC(Oc1cccc(Cl)c1)C(=O)Nc1ccc2oc(-c3ccncc3)nc2c1 (stereo not drawn),inactive,inactive
O=C(Nc1cnc2ccccc2c1)c1cccc(-n2cnnn2)c1,inactive,inactive
CC1=Nc2ccc(Cl)cc2C(O)(c2ccc(C)cc2)N1CCN1CCCCC1 (stereo not drawn),inactive,inactive
CNC(=O)c1nn(C)c2c1C(C)(C)Cc1cnc(Nc3ccc(N4CCN(C)CC4)cc3)nc1-2,inactive,inactive
Brc1cncc(-c2cc(NCCCn3ccnc3)nc(-c3ccccc3)n2)c1,inactive,inactive
CCc1cc(=O)n(C)c(SC(C)C(=O)Nc2ccc(F)cc2)n1 (stereo not drawn),inactive,inactive
O=C(Nc1nnc(-c2ccc(Cl)cc2)o1)c1cccc(C(F)(F)F)c1,inactive,inactive
NCCCC(N)(C(=O)O)C(F)F (stereo not drawn),inactive,inactive
CCOC(=O)c1c(NC(=O)c2c(F)c(F)c(F)c(F)c2F)sc(C(N)=O)c1C,inactive,inactive
CCOc1ccc(-c2nc(CNCCc3ccc(F)cc3)cs2)cc1,inactive,inactive

SMILES,inhibition [1],inhibition [2]
Cc1ccc(S(=O)(=O)Nc2ccc(CN3CCN(C(=O)c4cccc(C#N)c4)CC3)cc2)cc1,inactive,inactive
Cc1ncc(-c2ccnc(Nc3ccc(S(C)(=O)=O)cc3)n2)n1C(C)C,inactive,inactive
COC(=O)C1=C(C)NC(C)=C(C(=O)OC(C)C)C1c1cccc2nonc12 (stereo not drawn),inactive,inactive
O=C(c1ccc(F)cc1)N(CCNc1ccccc1)c1ccccc1,inactive,inactive
O=C(NCc1nnc2n1CCCCC2)c1ccc(-c2ccc(F)cc2)o1,inactive,inactive
O=C(Nc1ccc(N2CCNCC2)cc1)c1ccn2ncc(-c3cccc(Cl)c3)c2n1,inactive,inactive
O=C(NCc1ccoc1)N1CCN(Cc2ccc3c(c2)OCO3)CC1,inactive,inactive
COc1ccc(Cl)cc1NC(=O)CN(C)C(=O)c1cnn(-c2ccccc2)n1,inactive,inactive
CC(=O)NC[C@H]1CN(c2ccc(N3CCSCC3)c(F)c2)C(=O)O1,inactive,inactive
COc1cc(CN2CCC3(C=Cc4ccccc43)CC2)cc2c1OCO2,inactive,inactive
CC1(C)OB(O)c2ccc(C3=NOC(c4cc(Cl)c(F)c(Cl)c4)(C(F)(F)F)C3)cc21 (stereo not drawn),inactive,inactive
CCS(=O)(=O)N(Cc1ccco1)Cc1cc2ccc(C)cc2nc1O,inactive,inactive
COc1cccc2c(C)nc(N=C(N)N)nc12,inactive,inactive
CC(C)(CN)c1nc(-c2ccc(Cl)c(O)c2)c(-c2ccnc(N)n2)[nH]1,inactive,inactive
Cc1c[nH]c(CCNC(=O)c2cc(-c3ccc(Cl)cc3)cs2)n1,inactive,inactive
c1csc(-c2cnc3sc(NCC4CCOCC4)nn23)c1,inactive,inactive
Cc1ccccc1CN1CCC(O)(c2ccc(Cl)c(C(F)(F)F)c2)CC1,inactive,inactive
CN1CCCN(C(c2ccccc2)c2ccc(Cl)cc2)CC1 (stereo not drawn),inactive,inactive
Cc1cc(NC(=O)c2ccc(Oc3ccc(Cl)cc3O)o2)no1,inactive,inactive
Nc1ncnc2c1c(-c1cnc3ccccc3c1)nn2CC1CCNCC1,inactive,inactive
O=C(c1ccc(NCCO)cc1)C1C[C@H]1c1ccc(Cl)cc1 (stereo partly drawn),inactive,inactive
Cc1noc(C)c1COc1cccc(C(=O)N=c2[nH]cccc2C)c1,inactive,inactive
c1cc(C2=NCCN2)cc(-c2cc(-c3ccc(C4=NCCN4)cc3)no2)c1,inactive,inactive

SMILES,inhibition [1],inhibition [2]
Nc1ncnc2c1ncn2[C@@H]1O[C@H](COS(=O)(=O)NC(=O)c2ccccc2O)[C@@H](O)[C@H]1O,inactive,inactive
Nc1ncc(-c2cn[nH]c2)cc1-c1nc2cc(Cl)cnc2[nH]1,inactive,inactive
O=C(NC1CCCCC1)N1CCN(Cc2ccc3c(c2)OCO3)CC1,inactive,inactive
N=C(N)c1ccc(OCCCCCOc2ccc(C(=N)N)cc2)cc1,inactive,inactive
O=C(c1[nH]nc2c1CCCC2)N1CCN(Cc2ccc3c(c2)OCO3)CC1,inactive,inactive
CCCS(=O)(=O)N1CCC(CO)(Cc2ccccc2C(F)(F)F)CC1,inactive,inactive
CS(=O)(=O)N1CCC(CCn2nc(Cc3cccc4ccccc34)c3c(N)ncnc32)CC1,inactive,inactive
Cc1nn2c(O)c3c(nc2c1-c1ccc(F)cc1)CCCC3,inactive,inactive
FC(F)(F)c1cc(NCCc2ccccc2)nc(-c2ccccn2)n1,,inactive
CN1CCN(c2nccc3nc(-c4ccc(F)c(F)c4)[nH]c23)CC1,inactive,inactive
COc1cccc(-n2nnnc2S(=O)(=O)Cc2ccccc2)c1,inactive,inactive
COc1ccc(-c2cc(NC(=O)c3ccc(F)cc3Cl)ccc2OC)cc1,inactive,inactive
Oc1c(I)cc(I)c2cccnc12,inactive,inactive
O=C(Nc1nc(-c2ccccn2)cs1)C1CC1c1ccccc1F (stereo not drawn),inactive,inactive
FC(F)(F)c1ccc(N(c2cccnc2)C2CCN(c3ccc(C(F)(F)F)cn3)CC2)cc1,inactive,inactive
O=C1O[C@@H](COc2ccon2)CN1c1cc(F)c(C2=CCN(Cc3ccccc3)CC2)c(F)c1,inactive,inactive
CNc1nnc(Sc2cnn(-c3ccccc3)c(=O)c2Cl)s1,inactive,inactive
O=C(Nc1c(O)cccc1-c1nc2c(C(=O)O)cccc2o1)c1cc(-c2ccccc2)on1,inactive,inactive
CS(=O)(=O)c1ccc(C(=O)N(CC2CCCO2)c2nc3ccccc3s2)cc1[N+](=O)[O-] (stereo not drawn),inactive,inactive
CC(C(=O)Nc1ccc2oc(-c3ccncc3)nc2c1)c1ccccc1 (stereo not drawn),inactive,inactive
NCCN(C(=O)c1ccc(Cl)cc1Cl)c1ccc(OCc2ccc(Cl)cc2)cc1,inactive,inactive

# Reference: ChEMBL document CHEMBL3987221, “The Australian National University Dept Of Immunology Pathogen Box Compounds Screened” (2018)
